One assay deals with KRas wild type (Homo sapiens, UniProt P01116). In words: Ras GTP binding domain inhibition assay (labeled-GTP competition, cell-free). Also noted: made in house. In outline: (§1)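 His-tagged protein immobilized on Ni-coated wells overnight at 4 °C. Compounds (20 μM single point or serial dilution for IC50) incubated 3 h at RT, ± Sos (residues 556-1049, 10-30 μg/mL) during the final hour. Cy3- or Cy5-GTP (100 nM) then added for 45 min; bound label read by fluorescence after washing.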

A further assay addresses Rho-A (Homo sapiens, UniProt P61586). Described as above. The arrangement: made in house. In short, it runs like this: as §1
The target in another assay is Rac-1 (Homo sapiens, UniProt P63000). The assay is described as above. Also noted: made in house. In short, it runs like this: as §1
Assay [1] has as its system ERK1/2 phosphorylation in Panc-1 cells. Briefly: Western ERK1/2 cell-based phosphorylation assay. Also noted: species or system human. As to conditions: at 10 μM, values in brackets < > are activation %, not inhibition. In outline: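 Western blot with anti-phospho-p44/42 (Thr202/Tyr204) measured ERK1/2 phosphorylation after 15 min EGF (1.5 ng/ml) stimulation. Beforehand, serum-starved (0.5% FBS, overnight) Panc-1 cells received compounds for 6 h at 37 °C, at 10 μM final in 0.3% DMSO or as dilution series for IC50.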

The target in another assay is T1, KRas G12C mutant (Homo sapiens, UniProt P01116, G12C).
T1 construct: made in house
In words: Ras GTP binding domain inhibition assay (labeled-GTP competition, cell-free). In short, it runs like this: as §1

Another assay has as its target T2, KRas G12D mutant (Homo sapiens, UniProt P01116, G12D).
T2 construct: made in house
The description is as above. In short, it runs like this: as §1

Another assay has as its target T3, KRas Q61H mutant (Homo sapiens, UniProt P01116, Q61H).
T3 construct: made in house
Described as above. As to conditions: at 20 μM. In short, it runs like this: as §1

[2] abbreviates: with SOS, read-out: KRas wild type + SOS: % inh.
[3] abbreviates: without SOS, read-out: KRas wild type: % inh.
The mark [4] stands for this setting: with SOS, read-out: Rho-A + SOS: % inh.
[5] abbreviates: without SOS, read-out: Rho-A: % inh.
The mark [6] stands for this setting: with SOS, read-out: Rac-1 + SOS: % inh.
Where [7] appears, read: without SOS, read-out: Rac-1: % inh.
The mark [8] stands for this setting: with SOS, read-out: KRas G12C mutant + SOS: % inh.
The mark [9] stands for this setting: without SOS, read-out: KRas G12C mutant: % inh.
Setting [10] is: with SOS, read-out: KRas G12D mutant + SOS: % inh.
The mark [11] stands for this setting: without SOS, read-out: KRas G12D mutant: % inh.
The mark [12] stands for this setting: with SOS, read-out: KRas Q61H mutant + SOS: % inh.
[13] abbreviates: without SOS, read-out: KRas Q61H mutant: % inh.

From patent publication US20230227466A1, “SUBSTITUTED THIENOPYRIMIDINES THAT INTERACT WITH THE RAS SUPERFAMILY FOR THE TREATMENT OF CANCERS, INFLAMMATORY DISEASES, RASOPATHIES, AND FIBROTIC DISEASE” (SHY Therapeutics, LLC, priority 2020, published 2023) come the findings set out here.

Where two headings read alike, the source gives them in different places.

Take `COCCNc1nc(-c2nccn2C)nc2sc(-c3ccn(C(C)C)n3)c(C)c12` [Compound 35, 6-(1-Isopropyl-1H-pyrazol-3-yl)-N-(2-methoxyethyl)-5-methyl-2-(1-methyl-1H-imidazol-2-yl)thieno[2,3-d]pyrimidin-4-amine]: the inhibition at 20 µM at KRas wild type (setting [2]), on KRas wild type (setting [3]), at Rho-A (setting [4]), at Rho-A (setting [5]), on Rac-1 (setting [6]) and on Rac-1 (setting [7]) was 76 to 100% in each case. The inhibition at 20 µM at KRas G12C mutant (setting [8]), on KRas G12C mutant (setting [9]), at KRas G12D mutant (setting [10]), on KRas G12D mutant (setting [11]), at KRas Q61H mutant (setting [12]) and on KRas Q61H mutant (setting [13]) was 76 to 100% in each case. The “% inh of ERK1/2 phosphorylation in PANC-1” value (from here on “% inh”) in assay [1] is reported as 0 (0% inhibition).

For the molecule `Cc1c(-c2ccn(C(C)C)n2)sc2nc(-c3nccn3C)nc(NCCC3CCC(=O)N3)c12` (racemic) [Compound 56, rac-5-(2-((6-(1-Isopropyl-1H-pyrazol-3-yl)-5-methyl-2-(1-methyl-1H-imidazol-2-yl)thieno[2,3-d]pyrimidin-4-yl)amino)ethyl)pyrrolidin-2-one], the inhibition at 20 µM on KRas wild type (setting [2]), at KRas wild type (setting [3]), on Rho-A (setting [5]), at Rac-1 (setting [7]), at KRas G12C mutant (setting [8]) and at KRas G12C mutant (setting [9]) was 76 to 100% in each case. For the same molecule, the inhibition at 20 µM at KRas G12D mutant (setting [10]) was in the range of 76 to 100%; at KRas G12D mutant (setting [11]), 26 to 50%; on KRas Q61H mutant (setting [12]), 76 to 100%; at KRas Q61H mutant (setting [13]), 51 to 75%. For the same molecule, in assay [1], the “% inh” value is given as 0 (0% inhibition).

In the case of `Cc1c(-c2ccn(C(C)C)n2)sc2nc(-c3ccccn3)nc(N3CCC(COC(C)C)C3)c12` (stereo not drawn) [Compound 72, 4-(3-(Isopropoxymethyl)pyrrolidin-1-yl)-6-(1-isopropyl-1H-pyrazol-3-yl)-5-methyl-2-(pyridin-2-yl)thieno[2,3-d]pyrimidine], the inhibition at 20 µM at KRas wild type (setting [2]) was 0%; on KRas wild type (setting [3]), 1 to 25%; on Rho-A (setting [5]), 1 to 25%; on Rac-1 (setting [7]), 0%; on KRas G12C mutant (setting [8]) it was 1 to 25%; on KRas G12C mutant (setting [9]), 0%. Moreover, the inhibition at 20 µM at KRas G12D mutant (setting [10]) was 0%; at KRas G12D mutant (setting [11]), 51 to 75%; on KRas Q61H mutant (setting [12]) it was 0%; at KRas Q61H mutant (setting [13]), 0%. In assay [1], the “% inh” value is reported as “D (76-100% inhibition)”.

`CO[C@@H]1CC[C@@H](Nc2nc(-c3nccn3C)nc3sc(-c4ccn(C(C)C)n4)c(C)c23)C1` (racemic) [Compound 33, rac-6-(1-Isopropyl-1H-pyrazol-3-yl)-N-((1R,3R)-3-methoxycyclopentyl)-5-methyl-2-(1-methyl-1H-imidazol-2-yl)thieno[2,3-d]pyrimidin-4-amine]: the inhibition at 20 µM on KRas wild type (setting [2]) is 76 to 100%; on KRas wild type (setting [3]), 76 to 100%; on Rho-A (setting [4]), 76 to 100%; at Rho-A (setting [5]) it was 76 to 100%; on Rac-1 (setting [6]), 51 to 75%; on Rac-1 (setting [7]) it was 51 to 75%. Besides, the inhibition at 20 µM at KRas G12C mutant (setting [8]) was 76 to 100%; on KRas G12C mutant (setting [9]), 76 to 100%; on KRas G12D mutant (setting [10]), 76 to 100%; on KRas G12D mutant (setting [11]) it was 51 to 75%; at KRas Q61H mutant (setting [12]), 76 to 100%; on KRas Q61H mutant (setting [13]), 76 to 100%. Besides, in assay [1], the “% inh” value is given as “D (76-100% inhibition)”.

`CCOCCn1ccnc1-c1nc(O)c2scc(-c3ccccn3)c2n1` [Compound 80, 2-(1-(2-Ethoxyethyl)-1H-imidazol-2-yl)-7-(pyridin-2-yl)thieno[3,2-d]pyrimidin-4-ol]: the inhibition at 20 µM was 51 to 75% at KRas wild type (setting [2]); 76 to 100% on KRas wild type (setting [3]); 51 to 75% on Rho-A (setting [5]); 76 to 100% at Rac-1 (setting [7]); 51 to 75% on KRas G12C mutant (setting [8]); 51 to 75% on KRas G12C mutant (setting [9]). Also, the inhibition at 20 µM lay within 76 to 100% on KRas G12D mutant (setting [10]), 76 to 100% at KRas G12D mutant (setting [11]), 51 to 75% on KRas Q61H mutant (setting [12]) and 76 to 100% on KRas Q61H mutant (setting [13]). For the same molecule, the “% inh” value in assay [1] was “A (1-25% inhibition)”.

Turning to `COc1cccc(Nc2nc(-c3nccn3C)nc3sc(-c4ccn(C(C)C)n4)c(C)c23)n1.Cl` [Compound 65, 6-(1-Isopropyl-1H-pyrazol-3-yl)-N-(6-methoxypyridin-2-yl)-5-methyl-2-(1-methyl-1H-imidazol-2-yl)thieno[2,3-d]pyrimidin-4-amine hydrochloride salt], the inhibition at 20 µM on KRas wild type (setting [2]) was in the range of 51 to 75%; at KRas wild type (setting [3]), 26 to 50%; on Rho-A (setting [5]), 51 to 75%; at Rac-1 (setting [7]) it was 26 to 50%; at KRas G12C mutant (setting [8]) it was 76 to 100%; on KRas G12C mutant (setting [9]) it was 26 to 50%. The inhibition at 20 µM is 51 to 75% on KRas G12D mutant (setting [10]), 26 to 50% at KRas G12D mutant (setting [11]), 51 to 75% at KRas Q61H mutant (setting [12]) and 26 to 50% at KRas Q61H mutant (setting [13]). The “% inh” value in assay [1] is recorded as “D (76-100% inhibition)”.

Turning to `CO[C@H]1CCCN(c2nc(-c3nccn3C)nc3sc(-c4ccn(C(C)C)n4)c(C)c23)C1` [Compound 49, (S)-6-(1-Isopropyl-1H-pyrazol-3-yl)-4-(3-methoxypiperidin-1-yl)-5-methyl-2-(1-methyl-1H-imidazol-2-yl)thieno[2,3-d]pyrimidine], the inhibition at 20 µM lay in the range of 76 to 100% at KRas wild type (setting [2]); 51 to 75% at KRas wild type (setting [3]); 51 to 75% on Rho-A (setting [5]); 26 to 50% at Rac-1 (setting [7]); 51 to 75% at KRas G12C mutant (setting [8]); 1 to 25% at KRas G12C mutant (setting [9]). The inhibition at 20 µM on KRas G12D mutant (setting [10]) is 26 to 50%; on KRas G12D mutant (setting [11]), 0%; on KRas Q61H mutant (setting [12]), 51 to 75%; on KRas Q61H mutant (setting [13]), 51 to 75%. In assay [1], the “% inh” value is on record as “D (76-100% inhibition)”.
